What was measured:
cyclooxygenase-2 (COX-2) = assay: Cellular concentration of COX-2 in U937 differentiated monocytes (immunoblot); assay type: cell-based, human; conditions: 250 μM, 6 hours; compared with fatty acids not of Formula I, p<0.05
Protocol: FIG. 19B. Effect of various fatty acids in the inhibition (concentration of protein) of cyclooxygenase-2 (immunoblot of COX-2). […] Cell cultures (U937 differentiated monocytes) were treated with the fatty acids of the invention (250 μM, 6 hours).
(§1) In an additional study on the release of various proinflammatory cytokines (IL-1b, IL-6, IL-8, IL-10) and TNF-α in U937 monocytes stimulated with bacterial lipopolysaccharide (LPS), a marked reduction in the levels of these molecules was observed after treatments with OHHD at a concentration of 250 μM and 72 h incubation (Table 4). The effect of the α-derivatives of cis-monounsaturated fatty acids (250 μM, 6 h) on the activity and expression of the COX-1 and COX-2 cyclooxygenases was investigated in the same system.

[1] = Rat obesity induced by cafeteria diet, preventative pre-treatment (Table 3); assay type: in vivo, Wistar Kyoto rats; conditions: 300 mg/kg oral, after two weeks on cafeteria diet; obese control 308 ± 17, lean control 280 ± 16; * lower than obese controls, ‡ indistinguishable
How it was run: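 Groups of 6 female Wistar Kyoto rats (250-300 g) received oral pre-treatment with 300 mg/kg fatty acid or vehicle during 2 weeks on standard diet. Dosing continued for two further weeks on cafeteria diet, with lean and obese vehicle controls. Body-weight gain was the read-out.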

[2] = target: T1, cyclooxygenases-1 (COX-1) (Homo sapiens, UniProt P23219); assay: COX-1 activity in U937 differentiated monocytes (Cayman COX-1 inhibitor screening system); assay type: cell-based; conditions: 250 μM, 6 hours; compared with fatty acids not of Formula I, p<0.05
T1 construct: endogenous in cells; host or cells: U937 differentiated monocytes
T1 sequence (P23219 24-599): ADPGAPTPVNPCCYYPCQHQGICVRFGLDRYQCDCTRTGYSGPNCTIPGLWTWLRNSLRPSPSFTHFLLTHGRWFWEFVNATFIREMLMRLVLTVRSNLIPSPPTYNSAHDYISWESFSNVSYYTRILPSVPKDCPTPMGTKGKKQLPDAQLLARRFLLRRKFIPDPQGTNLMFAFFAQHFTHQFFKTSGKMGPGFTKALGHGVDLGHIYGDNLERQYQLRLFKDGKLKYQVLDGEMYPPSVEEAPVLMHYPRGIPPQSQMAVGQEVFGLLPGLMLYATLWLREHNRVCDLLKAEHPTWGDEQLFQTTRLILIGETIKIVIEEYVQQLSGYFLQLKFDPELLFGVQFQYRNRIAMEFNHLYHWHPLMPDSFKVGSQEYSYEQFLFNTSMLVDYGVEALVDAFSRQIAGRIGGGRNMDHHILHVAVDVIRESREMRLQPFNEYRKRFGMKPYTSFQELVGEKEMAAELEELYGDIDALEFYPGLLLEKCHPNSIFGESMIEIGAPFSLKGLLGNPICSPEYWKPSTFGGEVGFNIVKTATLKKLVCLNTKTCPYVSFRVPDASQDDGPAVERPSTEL
Protocol: FIG. 19A. Effect of various fatty acids in the inhibition of the activity of cyclooxygenases-1 (COX-1) (Cayman COX-1 inhibitor screening system). […] Cell cultures (U937 differentiated monocytes) were treated with the fatty acids of the invention (250 μM, 6 hours).
as §1

[3] = tested on: A549 cells of human lung adenocarcinoma; assay: Prevention of tumour development in nude mice injected with A549 cells; assay type: in vivo; conditions: 400 mg/kg per day oral, 2 weeks before and one month after A549 injection, compared with fatty acids not of Formula I, p<0.05
Excerpt: FIG. 2. Preventative effect of various fatty acids against tumour development. […] Animals received treatment before injection of tumour cells and the treatment was subsequently maintained. Animals of the control group were not treated and the volume of their tumours was taken as the reference value (100%).
To determine whether the fatty acids of the invention have applications in the prevention of the development of tumour processes, an animal cancer model was used. This model consisted of immune-deprived animals ([Crl:Nu(Ico)-Fox 1] nude mice in which non-microcytic human lung cancer cells were injected (5×10^6 A549 cells per animal). The control group (infected with cancer cells but untreated) started to develop tumours that were visible after a few days. The sizes of the tumours were measured for the first time at 10 days after implanting the tumour and measurements continued for up to 31 days after the implantation with a digital calliper. The volume of the tumours was calculated with the following equation: v=w^2×l/2 where v is the volume of the tumour, w is its width and l is the length. Preventative treatments against development of the cancer were applied. To carry out these treatments, 400 mg/kg were administered per day for 2 weeks before the injection of tumour cells. This treatment was continued for one month after the implantation of the tumour cells and the volume of the tumours in the animals was measured. Each experimental group was composed of 8 animals. Oral administration of α-derivatives of cis-monounsaturated fatty acids prevented cancer development (A549 cells of human lung adenocarcinoma) (FIG. 2). […] Therefore it was concluded that the introduction of a double bond in the cis configuration in the structure of the fatty acid is a critical factor in the prevention and treatment by fatty acids of cancer development.

[4] = tested on: Human glioma cells (U118); assay: Differentiation of human glioma cells (U118); assay type: cell-based; conditions: 200 μM
Excerpt: FIG. 16B. Human glioma cells (U118) are astrocytes of the central nervous system ([…]) that have lost their differentiation (Control). […] This differentiating activity can be involved in neuroregenerative processes necessary for recovery of motor activity.
This effect may be due to the induction of neural projection sprouting necessary to re-establish connections lost by the nerve fibre lesion.

[5] = tested on: SF767 human brain cancer cells; assay: Tumour volume in nude mice infected with SF767 human brain cancer cells; assay type: in vivo; conditions: 600 mg/kg daily for 50 days; for volume of tumours (percent compared to control): p<0.001 vs control
Protocol: FIG. 6A. Effect of different salts of OHOD on human lung cancer in an animal cancer model. The volume of tumours in nude mice infected with SF767 human brain cancer cells (expressed as a percent compared to control) receiving various treatments. The animals received a vehicle (water: Control), 600 mg/kg of OHOD in the form of free fatty acid (OHOD), 600 mg/kg of sodium salt of OHOD (Na-OHOD) or 600 mg/kg of ammonium salt of OHOD (NH3OHOD) daily for 50 days.
FIG. 6B. Effect of different salts of OHOD on human lung cancer in an animal cancer model. The effect of different doses of sodium salt of OHOD (Na-OHOD) are shown on tumour volumes in mice infected with SF767 cells and treated with vehicle (control, 0 mg/kg), 100 mg/kg (100), 200 mg/kg (200), 400 mg/kg (400) and 600 mg/kg (600) for 50 days. * p<0.05; ***p<0.001.
One important characteristic of the molecules covered in the present invention is that they can form various types of salts. FIG. 6A and Table 5 show the therapeutic effects of various α-derivatives of cis-monounsaturated fatty acids and their salts. […] The specificity of this effect is determined by the relation between the dose and the effect these molecules have on the volume of human tumours implanted in animals (FIG. 6B).

CCCCCCCC/C=C\CCCCCCC(OC)C(=O)O (stereo not drawn) [MOOD, α-Methoxy-cis-Δ9-octadecenoic]
cellular concentration of COX-2 (% of control) (cyclooxygenase-2 (COX-2)): more significant effect
Final weight [1]: 263 ± 22* g
inhibition of COX-1 activity (% of control) [2]: more significant effect
tumour volume (prevention of tumour development) [3]: more significant effect

CCCCCCCC/C=C\CCCCCCC(O)C(=O)[O-].[Na+] (stereo not drawn) [Na-OHOD]
differentiation of glioma cells [4]: differentiate and develop towards the glial phenotype
volume of tumours (percent compared to control) [5]: significant reductions in the size of tumours
potency on tumour volume compared with the free fatty acid OHOD ([5]; p<0.05): significantly more potent

CCCCCCCC/C=C\CCCCCCC(O)C(=O)O (stereo not drawn) [OHOD, α-Hydroxy-cis-Δ9-octadecenoic]
cellular concentration of COX-2 (% of control) (cyclooxygenase-2 (COX-2)): more significant effect
Final weight [1]: 284 ± 13* g
inhibition of COX-1 activity (% of control) [2]: more significant effect
volume of tumours (percent compared to control) [5]: significant reductions in the size of tumours
tumour volume (prevention of tumour development) [3]: more significant effect

Reference: US9730906B2, “α-derivatives of cis-monounsaturated fatty acids for use as medicines” (UNIVERSITAT DE LES ILLES BALEARS, priority 2008, dated 2017)
